Results published in ChEMBL document CHEMBL1136837, “Unified QSAR approach to antimicrobials. 4. Multi-target QSAR modeling and comparative multi-distance study of the giant components of antiviral drug-drug complex networks” (Bioorg Med Chem, 2009).

Legend:
Hepatitis B virus = test: Antiviral activity against Hepatitis B virus; type: functional, organism-based
Human alphaherpesvirus 1 = test: Antiviral activity against Herpes simplex virus 1; type: functional, organism-based; conditions: Human alphaherpesvirus 1
[1] = system: Human immunodeficiency virus 1; test: Antiviral activity against HIV1; type: functional, organism-based
Vaccinia virus = test: Antiviral activity against Vaccinia virus; type: functional, organism-based, Orthopoxvirus vaccinia; conditions: Orthopoxvirus vaccinia
Human alphaherpesvirus 2 = test: Antiviral activity against Herpes simplex virus 2; type: functional, organism-based; conditions: Human alphaherpesvirus 2
[2] = system: Human immunodeficiency virus 2; test: Antiviral activity against HIV2; type: functional, organism-based
Human papillomavirus = test: Antiviral activity against Human papillomavirus; type: functional, organism-based
Human alphaherpesvirus 3 = test: Antiviral activity against Varicella zoster virus; type: functional, organism-based
[3] = system: unidentified influenza virus; test: Antiviral activity against influenza virus; type: functional, organism-based
Cowpox virus = test: Antiviral activity against Cowpox virus; type: functional, organism-based

Structure (SMILES): COc1ccccc1/C(Br)=C(\NC(=O)c1ccc([N+](=O)[O-])cc1)C(=O)N1CCCCC1
- IC50 (Hepatitis B virus): 2.4 µM

Structure (SMILES): Nc1nc(Sc2ccc(Cl)cc2)c2ncn(CCOCP(=O)(OCC(F)(F)F)OCC(F)(F)F)c2n1
- IC50 (Hepatitis B virus): 0.12 µM

Structure (SMILES): CC(C)COc1ccc(Sc2nc(N)nc3c2ncn3CCOCP(=O)(OCC(F)(F)F)OCC(F)(F)F)cc1
- IC50 (Hepatitis B virus): 0.84 µM

Structure (SMILES): CC(C)Oc1ccc(Sc2nc(N)nc3c2ncn3CCOCP(=O)(OCC(F)(F)F)OCC(F)(F)F)cc1
- IC50 (Hepatitis B virus): 0.29 µM

Structure (SMILES): COc1ccccc1Sc1nc(N)nc2c1ncn2CCOCP(=O)(OCC(F)(F)F)OCC(F)(F)F
- IC50 (Hepatitis B virus): 0.08 µM

Structure (SMILES): Cc1c(N)nc(N)n(CCOCP(=O)(O)O)c1=O
- IC50 (Human alphaherpesvirus 1): 0.0012 µM
- IC50 [1]: 0.0003 µM
- IC50 (Vaccinia virus): 0.0012 µM
- IC50 (Human alphaherpesvirus 2): 0.00012 µM
- IC50 [2]: 0.0003 µM

Structure (SMILES): CN(C(=O)c1ccc(-c2ccc(S(=O)(=O)CC(=O)O)cc2)cc1)c1ccccc1
- IC50 (Human papillomavirus): 4.8 µM

Structure (SMILES): C[C@H](NC(=O)c1cccc(-c2ccc(S(=O)(=O)CC(=O)O)cc2)c1)c1ccccc1
- IC50 (Human papillomavirus): 1.7 µM

Structure (SMILES): Cc1ccccc1CNC(=O)c1cccc(-c2ccc(S(=O)(=O)CC(=O)O)cc2)c1
- IC50 (Human papillomavirus): 0.032 µM

Structure (SMILES): C[C@@H](NC(=O)c1cccc(-c2ccc(S(=O)(=O)CC(=O)O)cc2)c1)c1ccccc1
- IC50 (Human papillomavirus): 0.043 µM

Structure (SMILES): O=C(O)CS(=O)(=O)c1ccc(-c2ccc(C(=O)N3CCCCC3)cc2)cc1
- IC50 (Human papillomavirus): 3.3 µM

Structure (SMILES): O=C(O)CS(=O)(=O)c1ccc(-c2cccc(CC(=O)NCc3ccccc3)c2)cc1
- IC50 (Human papillomavirus): 0.3 µM

Structure (SMILES): Nc1ncnc2c1ncn2/C=C1\CC1(F)CO (configuration not stated)
- IC50 (Hepatitis B virus): 15 µM
- IC50 (Human alphaherpesvirus 3): 83.4 µM

Structure (SMILES): Nc1nc2c(ncn2/C=C2/CC2(F)CO)c(=O)[nH]1 (configuration not stated)
- IC50 (Hepatitis B virus): 20 µM
- IC50 (Human alphaherpesvirus 3): 79.6 µM
- IC50 [1]: 100 µM

Structure (SMILES): NC(=O)CS(=O)(=O)c1ccc(-c2ccccc2)cc1
- IC50 (Human papillomavirus): 80 µM

Structure (SMILES): O=C(O)CS(=O)(=O)c1ccc(-c2cccc(C(=O)NCc3cccc4ccccc34)c2)cc1
- IC50 (Human papillomavirus): 0.0043 µM

Structure (SMILES): COC(=O)/C(O)=C/C(=O)c1ccccc1
- IC50 [3]: 500 µM

Structure (SMILES): C=CCNc1nc(N)nc2c1ncn2CCOCP(=O)(O)O
- IC50 (Cowpox virus): 115 µM
- IC50 (Vaccinia virus): 25 µM

Structure (SMILES): CC(C)(C(=O)O)S(=O)(=O)c1ccc(-c2ccccc2)cc1
- IC50 (Human papillomavirus): 80 µM

Structure (SMILES): CCOC(=O)C(C)NP1(=O)CO[C@@H](Cn2ccc(N)nc2=O)CO1 (some centres not stated)
- IC50 (Cowpox virus): 26 µM
- IC50 (Vaccinia virus): 15 µM

Structure (SMILES): CC(C)OC(=O)C(C)NP(=O)(COCCn1cnc2c(NC3CC3)nc(N)nc21)Oc1ccccc1 (configuration not stated)
- IC50 (Cowpox virus): 2.6 µM

Structure (SMILES): O=C(Nc1ccc2c(c1)N(O)C(=O)/C2=C(\O)c1ccccc1)c1ccc(NC(=O)c2cccs2)cc1
- IC50 [3]: 20 µM

Structure (SMILES): O=C(O)CS(=O)(=O)c1ccc(NCCc2ccccc2)cc1
- IC50 (Human papillomavirus): 67 µM

Structure (SMILES): NC1c2[nH]cnc2N=CN1C[C@@H](CO)OCP(=O)(O)O (some centres not stated)
- IC50 (Cowpox virus): 330 µM

Structure (SMILES): CN(C)c1nc(N)nc2c1ncn2CCOCP(=O)(O)O
- IC50 (Cowpox virus): 53 µM
- IC50 (Vaccinia virus): 35 µM

Structure (SMILES): Nc1nc(NCC(F)(F)F)c2ncn(CCOCP(=O)(O)O)c2n1
- IC50 (Cowpox virus): 270 µM
- IC50 (Vaccinia virus): 42 µM

Structure (SMILES): O=C(O)CS(=O)(=O)c1ccc(Sc2ccccc2)cc1
- IC50 (Human papillomavirus): 80 µM

Structure (SMILES): O=C(O)CS(=O)(=O)c1cccc(COc2ccccc2)c1
- IC50 (Human papillomavirus): 80 µM

Structure (SMILES): CCCCOC(=O)C[C@H](C)NP(=O)(COCCn1cnc2c(N)ncnc21)N[C@@H](C)C(=O)OCCCC (some centres not stated)
- IC50 (Cowpox virus): 10 µM
- IC50 (Vaccinia virus): 4.4 µM

Structure (SMILES): O=C(Nc1ccc2c(c1)N(O)C(=O)/C2=C(\O)c1ccccc1)c1ccc(NS(=O)(=O)c2cccs2)cc1
- IC50 [3]: 48 µM

Structure (SMILES): CC(C)OC(=O)C(C)NP(=O)(CO[C@H](C)Cn1cnc2c(N)ncnc21)Oc1ccccc1 (some centres not stated)
- IC50 (Cowpox virus): 98.9 µM

Structure (SMILES): Cc1cc(OCCOCP(=O)(O)O)nc(N)n1
- IC50 [2]: 0.000433 µM

Structure (SMILES): O=C(N/C(C(=O)N1CCCCC1)=C(/Cl)c1ccccc1)c1ccccc1
- IC50 (Hepatitis B virus): 21.4 µM

Structure (SMILES): Cc1cn([C@@H]2O[C@H](CO)[C@@H](O)[C@@H]2F)c(=O)[nH]c1=O [5-METHYL-2'-FLUOROARAURACIL]
- IC50 (Hepatitis B virus): 0.83 µM

Structure (SMILES): CC(C)(C)C(=O)OCOP(=O)(COCCn1cnc2c(N)ncnc21)OCOC(=O)C(C)(C)C [ADEFOVIR DIPIVOXIL]
- IC50 (Cowpox virus): 13 µM
- IC50 (Vaccinia virus): 5.1 µM

Structure (SMILES): COc1ccc(Sc2nc(N)nc3c2ncn3CCOCP(=O)(OCC(F)(F)F)OCC(F)(F)F)cc1 [ALAMIFOVIR]
- IC50 (Hepatitis B virus): 0.03 µM

Structure (SMILES): O=C(NO)c1ccccc1 [BENZOHYDROXAMATE]
- IC50 [3]: 500 µM

Structure (SMILES): CCCCCCCCCCCCCCCCOCCCOP(=O)(O)CO[C@H](CO)Cn1ccc(N)nc1=O [BRINCIDOFOVIR]
- IC50 (Cowpox virus): 0.6 µM

Structure (SMILES): O=c1[nH]cnc2c1ncn2[C@H]1CC[C@@H](CO)O1 [DIDANOSINE]
- IC50 (Cowpox virus): 423 µM
- IC50 [1]: 4 µM
- IC50 (Vaccinia virus): 423 µM

Structure (SMILES): O=c1[nH]c(=O)n([C@@H]2O[C@H](CO)[C@@H](O)[C@@H]2F)cc1I [FIALURIDINE]
- IC50 (Cowpox virus): 0.24 µM

Structure (SMILES): O=c1[nH]c(=O)n([C@H]2C[C@H](O)[C@@H](CO)O2)cc1I [IDOXURIDINE]
- IC50 (Cowpox virus): 2 µM
- IC50 (Vaccinia virus): 6 µM

Structure (SMILES): Nc1ccn([C@@H]2CS[C@H](COP(=O)(O)OP(=O)(O)OP(=O)(O)O)O2)c(=O)n1 [LAMIVUDINE TRIPHOSPHATE]
- IC50 (Hepatitis B virus): 0.0075 µM

Structure (SMILES): COc1c(C)c2c(c(O)c1C/C=C(\C)CCC(=O)O)C(=O)OC2 [MYCOPHENOLIC ACID]
- IC50 (Cowpox virus): 3.2 µM

Structure (SMILES): Nc1nc(O)c2ncn(CCC(CO)CO)c2n1 [PENCICLOVIR]
- IC50 (Hepatitis B virus): 103 µM

Structure (SMILES): Cc1cn([C@H]2C=C[C@@H](CO)O2)c(=O)[nH]c1=O [STAVUDINE]
- IC50 (Cowpox virus): 446 µM
- IC50 (Vaccinia virus): 446 µM

Structure (SMILES): C[C@H](Cn1cnc2c(N)ncnc21)OCP(=O)(O)O [TENOFOVIR ANHYDROUS]
- IC50 (Cowpox virus): 300 µM
- IC50 [1]: 7.2 µM
- IC50 (Vaccinia virus): 300 µM

Structure (SMILES): Cc1cn([C@H]2C[C@H](N=[N+]=[N-])[C@@H](CO)O2)c(=O)[nH]c1=O [ZIDOVUDINE]
- IC50 [1]: 0.005 µM
- IC50 [2]: 0.005 µM
